Measurements from EP1640447A1, “BIOACTIVE PEPTIDE-PRODUCING STRAINS OF i ENTEROCOCCUS FAECALIS /i , BIOACTIVE PEPTIDES AND APPLICATIONS THEREOF” (Grupo Leche Pascual S.A., priority 2003, dated 2004).
Marks after values point to notes of the source that are not given here.

Legend:
[1] = test system: Wistar-Kyoto rats (WKY); assay: Blood pressure (tail cuff) after acute intragastric administration in normotensive Wistar-Kyoto rats; type: in vivo; conditions: whey 5 mL/kg, Captopril 50 mg/kg, LSD test at each time
Protocol: Male SHR and WKY rats of 17-20 weeks of age and weight comprised between 250 and 300 g were used, obtained from Charles River Laboratories Espana S.A.. The rats were kept at a stable ambient temperature of 23°C and with 12 hour light-dark cycles, taking water and food at will. The measurement of blood pressure in these animals was carried out by means of a modification of the tail cuff technique, originally disclosed by Buñag (Buñag RD. 1973. J Appl Physiol 34:79). This technique usually allows obtaining only systolic blood pressure (SBP) measurements; however, the equipment used in this study (Le50001 Letica model) allows differentiating the SBP and the diastolic blood pressure (DBP) of the animals, as it automatically provides the digital value of both parameters. For this reason the modification of the SBP and the DBP produced by the acute administration of the fermented milks and the peptides were tested in this study. Before placing the cuff on the tails of the rats, these were exposed to a temperature close to 30°C in order to facilitate the dilation of the caudal artery, and they were lightly anaesthetized with diethyl ether according to the process disclosed by Dietz et al. (Dietz R, Schömig A, Haebara H et al. 1978. Circ Res 43: I98-I106) in order to minimize the effect of stress on the measurement. […]

[2] = test system: spontaneously hypertensive rats (SHR); assay: Blood pressure (tail cuff) after acute intragastric administration in spontaneously hypertensive rats; type: in vivo; conditions: Captopril 50 mg/kg; for variation of diastolic blood pressure / variation of systolic blood pressure: mean ± standard error
Protocol: Male SHR and WKY rats of 17-20 weeks of age and weight comprised between 250 and 300 g were used, obtained from Charles River Laboratories Espana S.A.. The rats were kept at a stable ambient temperature of 23°C and with 12 hour light-dark cycles, taking water and food at will. The measurement of blood pressure in these animals was carried out by means of a modification of the tail cuff technique, originally disclosed by Buñag (Buñag RD. 1973. J Appl Physiol 34:79). This technique usually allows obtaining only systolic blood pressure (SBP) measurements; however, the equipment used in this study (Le50001 Letica model) allows differentiating the SBP and the diastolic blood pressure (DBP) of the animals, as it automatically provides the digital value of both parameters. For this reason the modification of the SBP and the DBP produced by the acute administration of the fermented milks and the peptides were tested in this study. Before placing the cuff on the tails of the rats, these were exposed to a temperature close to 30°C in order to facilitate the dilation of the caudal artery, and they were lightly anaesthetized with diethyl ether according to the process disclosed by Dietz et al. (Dietz R, Schömig A, Haebara H et al. 1978. Circ Res 43: I98-I106) in order to minimize the effect of stress on the measurement. Furthermore, in order to ensure the reliability of the measurement, the animals were familiarized with the process 2 weeks prior to performing the test in question.
The administration of the products to be tested was performed by means of intragastric probe in a time margin comprised between 9 and 10 am. The SHR rats used for the study had at that time SBP and DBP values comprised respectively between 240 and 290 mm Hg, and between 200 and 250 mm Hg. The WKY rats used for the study had at that time SBP and DBP values comprised respectively between 160 and 200 mm Hg, and between 100 and 140 mm Hg. SBP and DBP measurements were taken periodically in the animals, every 2 hours, up to 8 hours post-administration of the products to be tested; an additional measurement of both variables (SBP and DBP) was taken 24 hours after administration of said products.
In the case of the fermented milks, the supernatant (whey) obtained by centrifugation at 20,000 x g for 10 minutes of the milk fermented and pasteurized at 75°C for 1 minute following the process described in Example 2 was used as an administration product. From the corresponding supernatant a single administration of 5 mL/kg of animal body weight was used.
In the tests with peptide SEQ. ID. NO: 1 a single administration was also performed, and the dose used (2 mg/kg) was equivalent in ACEI activity units to the 5 mL/kg dose of supernatant of the milks fermented by E. faecalis CECT 5727, E. faecalis CECT 5728, E. faecalis CECT 5826 and E. faecalis CECT 5827. […] The most significant results were obtained with the peptide identified by SEQ. ID. NO: 1.
As a negative control (to establish the circadian variation of the SBP and the DBP in probed rats) the measurements obtained in rats that were administered 1 mL of water by intragastric probe were used. As a positive control (to establish the effect on the SBP and the DBP of a prototype ACEI drug, such as Captopril) the measurements of […] obtained in that were administered 50 mg /kg of Captopril by intragastric probe were used. This dose of Captopril was administered to each rat in a volume of 1 mL.
The results obtained were grouped and the mean ± standard error of the mean (SEM) for a minimum of 7 homogeneous tests was obtained. The data from treated animals was contrasted to one another and with the data considered as negative control. […]

[3] = Time 2 h after single intragastric administration, whey 5 mL/kg
[4] = Time 4 h after single intragastric administration, whey 5 mL/kg
[5] = Time 6 h after single intragastric administration, whey 5 mL/kg
[6] = Time 8 h after single intragastric administration, whey 5 mL/kg
[7] = Time 24 h after single intragastric administration, whey 5 mL/kg
[8] = single intragastric administration, whey 5 mL/kg, peptide 2 mg/kg

C[C@H](CS)C(=O)N1CCC[C@H]1C(=O)O [Captopril] was tested, and the “changes in DBP” value [1] was “no significant differences”, the “changes in SBP” value [1] was “no significant differences” and the “time after administration of maximum reduction / smallest values of DBP” value ([2]; peptide 2 mg/kg, intragastric) was 4 h. For the same compound, the “time after administration of maximum reduction / smallest values of SBP” value ([2]; whey 5 mL/kg, peptide 2 mg/kg, intragastric) was 6 h, the “variation of diastolic blood pressure” value [2, 3] was -28.29±2.40^a and the “variation of systolic blood pressure” value [2, 3] was -36.08±4.52^a. The “variation of diastolic blood pressure” value [2, 4] was -34.90±5.34^a, the “variation of systolic blood pressure” value [2, 4] was -51.98±5.36^a and the “variation of diastolic blood pressure” value [2, 5] was -28.63±5.77^a. For the same compound, the “variation of systolic blood pressure” value [2, 5] was -54.19±5.11^a, the “variation of diastolic blood pressure” value [2, 6] was -26.67±7.94^a and the “variation of systolic blood pressure” value [2, 6] was -35.44±4.70^a. For the same compound, the “variation of diastolic blood pressure” value [2, 7] was 1.37±1.02^a, the “variation of systolic blood pressure” value [2, 7] was 1.23±1.49^a and the “reduction in DBP (in words)” value [2, 8] was “pronounced reduction”. The “reduction in SBP (in words)” value [2, 8] was “pronounced reduction”.
